Results as given in PubChem BioAssay AID2060342 (Molecular Pharmacology Branch, DTP, NCI, 2025).

Test system: 171881-019-R-J1-PDC multicell spheroid viability
Assay: Anticancer human tumor 171881-019-R-J1-PDC patient-derived invasive breast carcinoma cell line growth inhibition [IpAb]
Conditions: for IC50: curve of first compound; for viability, T/C: stronger effect = lower value
Method in brief: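 Combinations with ipatasertib or abemaciclib were tested on tumour spheroids holding HUVEC (25%) and MSC (15%) alongside 60% malignant cells. Top concentration was at or near clinical Cmax (10 microM if undefined), descending in half-log steps.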

[1] = second compound 0.1 µM, first compound 0.0316 µM
[2] = second compound 0.1 µM, first compound 0.1 µM
[3] = second compound 0.1 µM, first compound 0.316 µM
[4] = second compound 0.1 µM, first compound 1 µM
[5] = second compound 0.316 µM, first compound 0.0316 µM
[6] = second compound 0.316 µM, first compound 0.1 µM
[7] = second compound 0.316 µM, first compound 0.316 µM
[8] = second compound 0.316 µM, first compound 1 µM
[9] = second compound 1 µM, first compound 0.0316 µM
[10] = second compound 1 µM, first compound 0.1 µM
[11] = second compound 1 µM, first compound 0.316 µM
[12] = second compound 1 µM, first compound 1 µM
[13] = second compound 3.16 µM, first compound 0.0316 µM
[14] = second compound 3.16 µM, first compound 0.1 µM
[15] = second compound 3.16 µM, first compound 0.316 µM
[16] = second compound 3.16 µM, first compound 1 µM
[17] = second compound 10 µM, first compound 0.0316 µM
[18] = second compound 10 µM, first compound 0.1 µM
[19] = second compound 10 µM, first compound 0.316 µM
[20] = second compound 10 µM, first compound 1 µM
[21] = second compound 0.1 µM, first compound 3.16 µM
[22] = second compound 0.1 µM, first compound 10 µM
[23] = second compound 0.316 µM, first compound 3.16 µM
[24] = second compound 0.316 µM, first compound 10 µM
[25] = second compound 1 µM, first compound 3.16 µM
[26] = second compound 1 µM, first compound 10 µM
[27] = second compound 3.16 µM, first compound 3.16 µM
[28] = second compound 3.16 µM, first compound 10 µM
[29] = second compound 10 µM, first compound 3.16 µM
[30] = second compound 10 µM, first compound 10 µM
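Further: spheroids exposed to the agents for seven days before readout.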

## CC(=O)c1c(C)c2cnc(Nc3ccc(N4CCNCC4)cn3)nc2n(C2CCCC2)c1=O + CC(C)NCC(C(=O)N1CCN(c2ncnc3c2C(C)CC3O)CC1)c1ccc(Cl)cc1
Second compound 0.1 µM
  IC50: > 0.3 µM
Second compound 0.316 µM
  IC50: > 0.3 µM
Second compound 1 µM
  IC50: < 0.000949 µM
Second compound 3.16 µM
  IC50: < 0.000949 µM
Second compound 10 µM
  IC50: < 0.000949 µM
Second compound 0.1 µM, first compound 0.000949 µM
  viability, T/C: 98.8%
Second compound 0.1 µM, first compound 0.003 µM
  viability, T/C: 112%
Second compound 0.1 µM, first compound 0.00949 µM
  viability, T/C: 94%
Second compound 0.1 µM, first compound 0.03 µM
  viability, T/C: 106%
Second compound 0.1 µM, first compound 0.0949 µM
  viability, T/C: 103%
Second compound 0.1 µM, first compound 0.3 µM
  viability, T/C: 93.5%
Second compound 0.316 µM, first compound 0.000949 µM
  viability, T/C: 83.3%
Second compound 0.316 µM, first compound 0.003 µM
  viability, T/C: 84.8%
Second compound 0.316 µM, first compound 0.00949 µM
  viability, T/C: 77.4%
Second compound 0.316 µM, first compound 0.03 µM
  viability, T/C: 76.1%
Second compound 0.316 µM, first compound 0.0949 µM
  viability, T/C: 64.6%
Second compound 0.316 µM, first compound 0.3 µM
  viability, T/C: 59.6%
Second compound 1 µM, first compound 0.000949 µM
  viability, T/C: 30.8%
Second compound 1 µM, first compound 0.003 µM
  viability, T/C: 26.1%
Second compound 1 µM, first compound 0.00949 µM
  viability, T/C: 27.8%
Second compound 1 µM, first compound 0.03 µM
  viability, T/C: 25.9%
Second compound 1 µM, first compound 0.0949 µM
  viability, T/C: 26.1%
Second compound 1 µM, first compound 0.3 µM
  viability, T/C: 23.9%
Second compound 3.16 µM, first compound 0.000949 µM
  viability, T/C: 12.4%
Second compound 3.16 µM, first compound 0.003 µM
  viability, T/C: 11.8%
Second compound 3.16 µM, first compound 0.00949 µM
  viability, T/C: 12.2%
Second compound 3.16 µM, first compound 0.03 µM
  viability, T/C: 10.2%
Second compound 3.16 µM, first compound 0.0949 µM
  viability, T/C: 9.89%
Second compound 3.16 µM, first compound 0.3 µM
  viability, T/C: 9.65%
Second compound 10 µM, first compound 0.000949 µM
  viability, T/C: 6.66%
Second compound 10 µM, first compound 0.003 µM
  viability, T/C: 6.56%
Second compound 10 µM, first compound 0.00949 µM
  viability, T/C: 6.69%
Second compound 10 µM, first compound 0.03 µM
  viability, T/C: 5.87%
Second compound 10 µM, first compound 0.0949 µM
  viability, T/C: 5.79%
Second compound 10 µM, first compound 0.3 µM
  viability, T/C: 5.34%

## COc1c(OCCCN2CCOCC2)ccc2c3n(c(=NC(=O)c4cnc(N)nc4)nc12)CCN3 + CC(C)NCC(C(=O)N1CCN(c2ncnc3c2C(C)CC3O)CC1)c1ccc(Cl)cc1
Second compound 0.1 µM
  IC50: 0.0164 µM
Second compound 0.316 µM
  IC50: 0.0059 µM
Second compound 1 µM
  IC50: < 0.00316 µM
Second compound 3.16 µM
  IC50: < 0.00316 µM
Second compound 10 µM
  IC50: < 0.00316 µM
Second compound 0.1 µM, first compound 0.00316 µM
  viability, T/C: 94.5%
Second compound 0.1 µM, first compound 0.01 µM
  viability, T/C: 68.5%
[1]
  viability, T/C: 25.8%
[2]
  viability, T/C: 3.96%
[3]
  viability, T/C: 1.09%
[4]
  viability, T/C: 1.15%
Second compound 0.316 µM, first compound 0.00316 µM
  viability, T/C: 61.5%
Second compound 0.316 µM, first compound 0.01 µM
  viability, T/C: 40%
[5]
  viability, T/C: 16.9%
[6]
  viability, T/C: 3.36%
[7]
  viability, T/C: 0.91%
[8]
  viability, T/C: 0.95%
Second compound 1 µM, first compound 0.00316 µM
  viability, T/C: 25.2%
Second compound 1 µM, first compound 0.01 µM
  viability, T/C: 15.6%
[9]
  viability, T/C: 8.13%
[10]
  viability, T/C: 2.24%
[11]
  viability, T/C: 0.79%
[12]
  viability, T/C: 1.24%
Second compound 3.16 µM, first compound 0.00316 µM
  viability, T/C: 9.51%
Second compound 3.16 µM, first compound 0.01 µM
  viability, T/C: 6.39%
[13]
  viability, T/C: 3.83%
[14]
  viability, T/C: 1.68%
[15]
  viability, T/C: 0.83%
[16]
  viability, T/C: 0.67%
Second compound 10 µM, first compound 0.00316 µM
  viability, T/C: 5.07%
Second compound 10 µM, first compound 0.01 µM
  viability, T/C: 3.81%
[17]
  viability, T/C: 2.45%
[18]
  viability, T/C: 1.59%
[19]
  viability, T/C: 0.62%
[20]
  viability, T/C: 0.82%

## Cc1nc(NC(=O)N2CCCC2C(N)=O)sc1-c1ccnc(C(C)(C)C(F)(F)F)c1 (stereo not given) + CC(C)NCC(C(=O)N1CCN(c2ncnc3c2C(C)CC3O)CC1)c1ccc(Cl)cc1
Second compound 0.1 µM
  IC50: 0.651 µM
Second compound 0.316 µM
  IC50: 0.294 µM
Second compound 1 µM
  IC50: < 0.0316 µM
Second compound 3.16 µM
  IC50: < 0.0316 µM
Second compound 10 µM
  IC50: < 0.0316 µM
[1]
  viability, T/C: 125%
[2]
  viability, T/C: 108%
[3]
  viability, T/C: 68.4%
[4]
  viability, T/C: 38.1%
[21]
  viability, T/C: 15.5%
[22]
  viability, T/C: 1.41%
[5]
  viability, T/C: 71.5%
[6]
  viability, T/C: 58.9%
[7]
  viability, T/C: 52.8%
[8]
  viability, T/C: 18.8%
[23]
  viability, T/C: 10.7%
[24]
  viability, T/C: 1.29%
[9]
  viability, T/C: 24.8%
[10]
  viability, T/C: 24.1%
[11]
  viability, T/C: 21.3%
[12]
  viability, T/C: 13.5%
[25]
  viability, T/C: 4.39%
[26]
  viability, T/C: 0.88%
[13]
  viability, T/C: 10.7%
[14]
  viability, T/C: 7.22%
[15]
  viability, T/C: 7.33%
[16]
  viability, T/C: 5.54%
[27]
  viability, T/C: 3.24%
[28]
  viability, T/C: 0.74%
[17]
  viability, T/C: 5.48%
[18]
  viability, T/C: 4.17%
[19]
  viability, T/C: 4.3%
[20]
  viability, T/C: 2.72%
[29]
  viability, T/C: 1.77%
[30]
  viability, T/C: 0.6%

## Cn1nccc1Nc1nccc(-c2ccn(C(CO)c3ccc(Cl)c(F)c3)c(=O)c2)n1 (stereo not given) + CC(C)NCC(C(=O)N1CCN(c2ncnc3c2C(C)CC3O)CC1)c1ccc(Cl)cc1
Second compound 0.1 µM
  IC50: 0.169 µM
Second compound 0.316 µM
  IC50: 0.0648 µM
Second compound 1 µM
  IC50: < 0.0316 µM
Second compound 3.16 µM
  IC50: < 0.0316 µM
Second compound 10 µM
  IC50: < 0.0316 µM
[1]
  viability, T/C: 111%
[2]
  viability, T/C: 65.8%
[3]
  viability, T/C: 32.5%
[4]
  viability, T/C: 10.4%
[21]
  viability, T/C: 7.79%
[22]
  viability, T/C: 7.95%
[5]
  viability, T/C: 69.1%
[6]
  viability, T/C: 38.5%
[7]
  viability, T/C: 9.02%
[8]
  viability, T/C: 4.73%
[23]
  viability, T/C: 3.47%
[24]
  viability, T/C: 3.81%
[9]
  viability, T/C: 17.9%
[10]
  viability, T/C: 10.3%
[11]
  viability, T/C: 3.68%
[12]
  viability, T/C: 2.46%
[25]
  viability, T/C: 2.13%
[26]
  viability, T/C: 1.27%
[13]
  viability, T/C: 6.73%
[14]
  viability, T/C: 3.37%
[15]
  viability, T/C: 2.44%
[16]
  viability, T/C: 1.77%
[27]
  viability, T/C: 0.69%
[28]
  viability, T/C: 0.94%
[17]
  viability, T/C: 3.16%
[18]
  viability, T/C: 2.33%
[19]
  viability, T/C: 1.55%
[20]
  viability, T/C: 1.06%
[29]
  viability, T/C: 0.84%
[30]
  viability, T/C: 0.32%
